Data on 2 compounds can be found in patent US6399664B2, “Method of treating cancer, specifically leukemia, with ozone” (priority 1996, dated 2002).

Molecules are shown by their SMILES.

The test system of series [1] is chronic myeloid leukemia (CML). Description: Conventional chemotherapy with Hydroxyurea of CML canine #198675.
A further series concerns K562 leukemic cell line. Nature of the series: K562 colony formation and differentiation in methylcellulose medium. It is filed as cell-based, human. On the procedure:
(§1) Ozone and ROI's were generated using medical grade oxygen from a high voltage corona discharge electrical ozone generator (Carpendale and Freeberg, 1991; Viebahn, 1994; FIG. 13). Liquid RPMI complete media suspension of K562 cell cultures or normal human whole blood (10 ml each treatment) was processed through a micro-bubbling device at several ozone concentrations (5, 10, 15, and 25 μg/ml). In addition, a 100% oxygen treated and non-processed control samples were also examined. After processing, complete blood counts were measured on all whole blood samples. Peripheral blood mononuclear cells (PBMC) were isolated using a standard density gradient of 1.077 g/ml and washed with Iscove's medium. Viability and cell counts were determined manually using a hemocytrometer and a 4% solution of Trypan blue. Cell concentrations were adjusted to 2.0×10^6 cells/ml. Cells were mixed in a 1:10 (v/v) ratio with methylcellulose medium with recombinant growth factors (#HCC-4434, StemCell Technologies Inc.) and plated to contain 2×10^5 cells per plate in duplicate for normal PBMCs and 2×10^4 for K562 cells. Plates were incubated at 37° C. in a CO2/O2 incubator. Colonies were scored on day 5, 8, 10 and day 14 according to the scoring criteria by StemCell Technologies. The data results for cell viability, total colonies (proliferation) and individual colony cell types (differentiation) are presented in FIGS. 1-8.

Series [2] has as its system chronic myeloid leukemia (CML). Description: Ozone/ROI therapy (iv injection, adjunct minor autohemotherapy) of CML canine #198675. In kind it is in vivo. On the procedure:
The attending veterinarian discussed euthanasia and the ozone or ROI therapy described in this invention with the owner under strict confidence. The owner and all attending veterinarians signed consent and confidentiality forms and the ozone or ROI therapy began on Sep. 23, 1997 and continued for 16 weeks. Prior to each weekly ozone or ROI treatment the patient's complete blood counts were measured using a Coulter Counter Hematology Analyzer (Coulter Electronics Canada Co.). The leukocyte differential counts were determined manually by the pathologist and recorded in FIG. 14. Ozone and ROI's were generated from a high voltage corona discharge electrical ozone generator using medical grade oxygen as shown in FIG. 13. Ozone/oxygen gas (30 to 60 ml) was injected intra-venously (iv) through a sterile catheter needle (Abbocath-T, 22 g×11⁄4 in.; Abbott Ireland) inserted in the leg vein of the mammal (canine #198675) with a sterile extension set (79 cm, […], Abbott Ireland) attached to the syringe containing the ozone ROI gas mixture. The ozone/oxygen gas mixture was slowly injected over a 10 to 20 minute period to allow maximum gas absorption. The secondary or adjunct to the preferred route of administration was minor autohemotherapy (minor AHT) where heparinized whole blood (7 ml each treatment) was gently mixed in a disposable syringe or devise with increasing doses of ozone to a maximum of 25 ml at 34 to 42 μg/ml (dose is species specific). The blood gas mixture was allowed to equilibrate at room temperature for 1 to 5 minutes with intermittent mixing. The excess gas was evacuated prior to intramuscular (im) or subcutaneous (sc) injection of the ozonated blood at several locations. Patients were accessed prior to, during and post treatment by blood tests, clinical response, and biopsy when appropriate.

Series [3] deals with normal human peripheral blood leukocytes. Nature of the series: Effects of ozone on normal human leukocytes run in parallel. It is filed as cell-based. The following applies: at the concentrations used. On the procedure: as §1, with “The data results for cell viability, total colonies (proliferation) and individual colony cell types (differentiation) are presented in FIGS. 1-8.” left out

Series [4] concerns normal human peripheral blood mononuclear cells (PBMC). Description: Normal human PBMC colony formation in methylcellulose medium. It is filed as cell-based. As to conditions: ozone 5, 10, 15, 25 μg/ml. On the procedure:
as §1, with “The data results for cell viability, total colonies (proliferation) and individual colony cell types (differentiation) are presented in FIGS. 1-8.” left out

The test system of series [5] is cytokine levels such as IL-1, IL-2 and IFN-γ. As to conditions: in humans; cited from earlier work.
Series [6] concerns K562, Human CML cell line. Nature of the series: K562 viability by Trypan blue exclusion after ozone micro-bubbling. As to conditions: ozone 5, 10, 15, 25 μg/ml. In kind it is cell-based. The procedure: as §1, with “The data results for cell viability, total colonies (proliferation) and individual colony cell types (differentiation) are presented in FIGS. 1-8.” left out
In series [7] the test system is cultured human cancerous cell lines derived from lung, breast and uterine solid tumours. The following applies: little damage to normal cell growth; cited from earlier work.
Where [8] appears, read: 500 mg twice daily for approximately one year.
[9] abbreviates: 16 μg/ml ozone injected, up to 197 ug total, in vivo concentration less than 0.25 μg/ml.
[10] abbreviates: 28 to 42 μg/ml ozone injected, up to 2100 ug total, in vivo concentration 0.5 to 1.5 μg/ml.

Regarding `NC(=O)NO` [Hydroxyurea], in series [1] (setting [8]), the RBC counts result is reported as “increased with time”; the “WBC levels relative to normal canine range of 6.1 to 17.4×10^9 cells per liter” value is reported as “never returned to the normal canine range”; the “side effects (clinical presentation)” value is “depression, lethargy, severe to mild diarrhea, anorexia, vomiting, weight loss, occasionally vaginal bleeding, abdominal pain and splenomegaly”; the “total WBC counts” value is “decrease”. Besides, in series [1] (after one year of chemotherapy), the “time of entering blast crisis after cessation of conventional chemotherapy” value is 1.5 months.

With `O=[O+][O-]` [ozone], in the series with K562 leukemic cell line (increasing concentrations of ozone), the “colony differentiation, dose response” value was “increased colony differentiation into normal cells”. For the same compound, the “production of normal hematopoietic colonies (CFU-E, BFU-E, GM-CFU, CFU-GEMM) from K562” value with K562 leukemic cell line (ozone 5, 10, 15, 25 μg/ml) is reported as “stimulates the production of normal hematopoietic colonies”. In addition, the “proliferation of leukemia derived colonies” value with K562 leukemic cell line (ozone 5, 10, 15, 25 μg/ml, total colonies) is reported as “inhibits the proliferation”. In addition, in series [2] (setting [9]), the “effect on canine hematopoietic system” value is “significant activation” and the “production of leukemic cells” value is recorded as “significant increase”. The “progression of CML (total WBC and RBC counts)” value in series [2] (16 week treatment) is recorded as “reversed the progression of CML”. Moreover, in series [2] (setting [10]), the “effect on canine hematopoietic system” value is on record as “significant inhibition” and the “production of leukemic cells” value is given as “significant reduction”. Besides, the “patient's quality of life” value in series [2] (CML canine #198675, weekly ozone/ROI treatment, 16 weeks) is “increase”. Further, the diarrhea entry in series [2] (CML canine #198675, diarrhea not related to CML) is reported as “slight improvement in the diarrhea, although only temporary”. Also, the vomiting entry in series [2] (after the first two weeks of treatment) was “decrease”. Further, the “ability of the immature stem cell to differentiate into the different blood cell types” value in series [2] (ozone dose dependent, 16 to 42 μg/ml generated ozone concentration) is given as “improved”. The “total WBC counts” value in series [2] (with the increase of the internal ozone concentration in the mammal) is on record as “decrease”. Moreover, the “effects on normal human leukocytes” value in series [3] is given as “no significant deleterious effects”. For the same compound, the “effects in the colonies from normal human PBMC” value in series [4] is “no deleterious effects”. The “cytokine levels such as IL-1, IL-2 and IFN-γ” value in series [5] is “increases cytokine levels”. The “viability of malignant cells” value in series [6] is listed as “reduction in the viability”. For the same compound, in series [7], the “growth of cultured human cancerous cell lines” value is “selectively inhibit the growth”.
